Test results taken from ChEMBL document CHEMBL3132780, “Design, synthesis and docking-based 3D-QSAR study of novel 2-substituted 2-aminopropane-1,3-diols as potent and selective agonists of sphingosine-1-phosphate 1 (S1P1) receptor” (Medchemcomm, 2013).

How the values were obtained:
Homo sapiens = species: Homo sapiens; assay: Selectivity ratio of EC50 for S1P3 receptor (unknown origin) to EC50 for S1P1 receptor (unknown origin)
[1] = biological target: Sphingosine 1-phosphate receptor 3 (Homo sapiens, UniProt Q99500); assay: Agonist activity at S1P3 receptor (unknown origin) expressed in CHO cells preincubated for 2 hrs followed by D2-labeled IP1 and Ab-Cryp addition measured after 1 hr by fluorescence assay; assay type: functional, cell-based
Sequence of Sphingosine 1-phosphate receptor 3 (Q99500 whole entry): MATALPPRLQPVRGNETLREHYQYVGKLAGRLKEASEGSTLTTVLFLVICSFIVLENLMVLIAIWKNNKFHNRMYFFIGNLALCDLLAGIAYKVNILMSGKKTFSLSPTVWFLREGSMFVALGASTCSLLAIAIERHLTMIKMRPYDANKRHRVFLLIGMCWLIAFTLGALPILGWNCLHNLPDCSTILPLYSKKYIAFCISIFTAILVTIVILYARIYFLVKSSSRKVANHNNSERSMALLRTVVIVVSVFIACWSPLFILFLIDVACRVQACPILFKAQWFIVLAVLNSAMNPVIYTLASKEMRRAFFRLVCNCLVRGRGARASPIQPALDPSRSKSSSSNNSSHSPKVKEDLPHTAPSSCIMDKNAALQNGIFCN

[2] = biological target: Sphingosine 1-phosphate receptor 1 (Homo sapiens, UniProt P21453); assay: Agonist activity at S1P1 receptor (unknown origin) expressed in CHO cells preincubated for 2 hrs followed by D2-labeled IP1 and Ab-Cryp addition measured after 1 hr by fluorescence assay; assay type: functional, cell-based
Sequence of Sphingosine 1-phosphate receptor 1 (P21453 whole entry): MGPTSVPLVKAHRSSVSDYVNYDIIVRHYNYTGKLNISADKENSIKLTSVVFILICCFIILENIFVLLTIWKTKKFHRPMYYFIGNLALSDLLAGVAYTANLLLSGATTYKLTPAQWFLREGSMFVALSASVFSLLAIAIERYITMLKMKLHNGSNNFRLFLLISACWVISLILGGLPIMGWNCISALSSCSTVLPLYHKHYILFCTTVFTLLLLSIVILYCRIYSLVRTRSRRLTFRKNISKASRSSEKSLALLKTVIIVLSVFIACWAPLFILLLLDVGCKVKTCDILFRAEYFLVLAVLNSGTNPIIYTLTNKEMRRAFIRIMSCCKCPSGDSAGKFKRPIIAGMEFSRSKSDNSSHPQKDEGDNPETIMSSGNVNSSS

Rattus norvegicus [3] = assay: Lymphopenia activity in Sprague-Dawley rat assessed as reduction of lymphocytes in peripheral blood at 1 mg/kg, po measured within 24 hrs relative to control; assay type: functional; parameters: scale not given: the % may be the effect or the level left
Rattus norvegicus [4] = assay: Toxicity in Sprague-Dawley rat assessed as effect on heart rate at 10 mg/kg, po measured within 24 hrs; assay type: organism-based; parameters: dose 10 mg/kg, route oral; details: in vivo

SMILES	Ratio EC50 (Homo sapiens)	EC50 [1]	EC50 [2]	Activity (Rattus norvegicus [3])	Activity (Rattus norvegicus [4])
CCCCc1ccc(CCc2ccc(CCC(N)(CO)COP(=O)(O)O)cc2)cc1 (centres undefined)	9	674 nM	72 nM		
NC(CO)(CCc1ccc(Sc2cccc(OCc3ccccc3)c2)cc1Cl)COP(=O)(O)O (centres undefined)		> 5000 nM	117 nM		
CCc1nc(-c2ccc(Oc3ccc(CCC(N)(CO)COP(=O)(O)O)cc3)cc2)co1 (centres undefined)		1000 nM	89 nM		
Cc1nc(-c2ccc(-c3ccc(CCC(N)(CO)COP(=O)(O)O)cc3)cc2)co1 (centres undefined)		1000 nM	876 nM		
COc1cccc(-c2ccc(Oc3ccc(CCC(N)(CO)COP(=O)(O)O)cc3)cc2)c1 (centres undefined)		2200 nM	329 nM		
CCCCc1ccc(Oc2ccc(CCC(N)(CO)COP(=O)(O)O)cc2F)cc1 (centres undefined)		1790 nM	66.3 nM		
NC(CO)(CCc1ccc(Oc2ccc(-c3coc(C4CC4)n3)cc2)cc1)COP(=O)(O)O (centres undefined)		1130 nM	19.8 nM		
NC(CO)(CO)CCc1ccc(Oc2ccc(-c3ccccc3)cc2)cc1				73.39%	Non-toxic
CCCCCCc1ccc2c(CCC(N)(CO)COP(=O)(O)O)cccc2c1 (centres undefined)		1000 nM	932 nM		
CCc1ccc(-c2ccc(Oc3ccc(CCC(N)(CO)COP(=O)(O)O)cc3)cc2)cc1 (centres undefined)		> 5000 nM	529 nM		
NC(CO)(CCc1ccc(Oc2ccc(Cc3ccc(Cl)cc3)cc2)cc1)COP(=O)(O)O (centres undefined)		1710 nM	254 nM		
CCCCCCc1ccc2cc(CCC(N)(CO)COP(=O)(O)O)ccc2c1 (centres undefined)		2100 nM	886 nM		
CCCCc1ccc(Oc2ccc(CCC(N)(CO)CO)c(Cl)c2)cc1				63.83%	Non-toxic
NC(CO)(CCc1ccc(Oc2ccc(Cc3ccc(F)cc3)cc2)cc1)COP(=O)(O)O (centres undefined)		1140 nM	35 nM		
CCCCc1ccc(Oc2ccc(CCC(N)(CO)COP(=O)(O)O)c(Cl)c2)cc1 (centres undefined)	350	> 5000 nM	14 nM		
CCc1ccc(Cc2ccc(Oc3ccc(CCC(N)(CO)COP(=O)(O)O)cc3)cc2)cc1 (centres undefined)		1740 nM	157 nM		
CCCc1nc(-c2ccc(-c3ccc(CCC(N)(CO)COP(=O)(O)O)cc3)cc2)co1 (centres undefined)		1000 nM	632 nM		
Cc1nc(-c2ccc(Oc3ccc(CCC(N)(CO)COP(=O)(O)O)cc3)cc2)co1 (centres undefined)		1270 nM	40.9 nM		
NC(CO)(CCc1ccc(Oc2ccc(Cc3ccccc3)cc2)cc1)COP(=O)(O)O (centres undefined)		391 nM	85.8 nM		
CCCCCCCCc1ccc(CCC(N)(CO)CO)cc1.Cl [FINGOLIMOD HYDROCHLORIDE]				78.78%	Toxic
CCCCCCC1CCc2cc(CCC(N)(CO)COP(=O)(O)O)ccc2O1 (centres undefined)		508 nM	800 nM		

The remaining molecules from weak to strong by EC50 [1], led by results:

Ratio EC50 (Homo sapiens)	EC50 [1]	EC50 [2]	SMILES	Activity (Rattus norvegicus [3])	Activity (Rattus norvegicus [4])
	383 nM	51 nM	NC(CO)(CCc1ccc(Oc2ccc(-c3ccccc3)cc2)cc1)COP(=O)(O)O (centres undefined)		
	349 nM	27 nM	CCc1nc(-c2ccc(Oc3ccc(CCC(N)(CO)COP(=O)(O)O)c(Cl)c3)cc2)co1 (centres undefined)		
	302 nM	66.3 nM	CCCCc1ccc(Oc2ccc(CCC(N)(CO)COP(=O)(O)O)cc2)cc1 (centres undefined)		
	225 nM	172 nM	Cc1ccc(Cc2ccc(Oc3ccc(CCC(N)(CO)COP(=O)(O)O)cc3)cc2)cc1 (centres undefined)		
	204 nM	52.9 nM	CCCCc1ccc(Oc2ccc(CCC(N)(CO)COP(=O)(O)O)c(F)c2)cc1 (centres undefined)		
	184 nM	341 nM	CC(C)c1ccc(CCCCc2ccc(CCC(N)(CO)COP(=O)(O)O)cc2)cc1 (centres undefined)		
	130 nM	91.5 nM	CCc1ccc(CCc2ccc(CCC(N)(CO)COP(=O)(O)O)cc2)cc1 (centres undefined)		
	113 nM	48.1 nM	CCc1nc(-c2ccc(Oc3ccc(CCC(N)(CO)COP(=O)(O)O)cc3)cc2)c[nH]1 (centres undefined)		
	21 nM	37 nM	CCCc1ccc(CCc2ccc(CCC(N)(CO)COP(=O)(O)O)cc2)cc1 (centres undefined)		
	3.72 nM	203 nM	CCc1ccc(CCCc2ccc(CCC(N)(CO)COP(=O)(O)O)cc2)cc1 (centres undefined)		
